# Test results: patent EP4643858A1, “METHODS AND PHARMACEUTICAL COMPOSITION FOR THE TREATMENT OF UTERINE DISEASE” (Institut National de la Santé et de la Recherche Médicale, priority 2024, dated 2025)
# Columns and labels:
# [1] = test system: P-AKTSer473; test: Patient myometrium and myoma samples treated in vitro, Western blot of P-AKT; format: cell-based, human; conditions: myometrium and myoma samples from patients treated in vitro 24 hours at different doses; Western blot P-AKTSer473 (Figure 4)
# Description: (§1) Tissues were crushed and then lysed in RIPA lysis buffer supplemented with phosphatase and protease inhibitors. Protein concentrations were determined through the bicinchoninic acid method (Pierce). Protein extracts were analyzed by Western blot where the transfer membrane was incubated with a primary antibody followed by the appropriate peroxidase-conjugated secondary antibody (dilution 1:10,000). Chemiluminescence were acquired using a Chemidoc MP and bands were quantitated with the Image Lab Software (Bio-Rad Laboratories).
# as §1, with “Tissues collected from patients (endometrium, adenomyosis, endometriosis and myoma). Tissues were cultivated in media and treated during 24 hours with either DMSO, alpelisib or ST420 (Compound having formula I and/or its derivatives). Then, they” for “Tissues”, “and” for “and then”, “Laboratories). […]” for “Laboratories).”
# [2] = test system: P-AKTSer473; test: Patient tissues (healthy endometrium, adenomyosis or endometriosis lesions) treated in vitro, Western blot of P-AKT; format: cell-based, human; conditions: healthy endometrium and lesions of adenomyosis or endometriosis from patients, exposed in vitro during 24 hours to different doses; Western blot P-AKTSer473 (Figure 3B)
# Description: as §1
# as §1, with “Tissues collected from patients (endometrium, adenomyosis, endometriosis and myoma). Tissues were cultivated in media and treated during 24 hours with either DMSO, alpelisib or ST420 (Compound having formula I and/or its derivatives). Then, they” for “Tissues”, “and” for “and then”
# PIK3CA pharmacological inhibitors are developed for oncology and other medical situations. […]
# [3] = patients treated with alpelisib; cited from earlier work
compound,measurement,setting,value
Cc1nc(NC(=O)N2CCC[C@H]2C(N)=O)sc1-c1ccnc(C(C)(C)C(F)(F)F)c1 [alpelisib],inhibition of the PIK3CA pathway in myoma,[1],able to inhibit the pathway in myoma
same,phosphorylation of AKT,[2],able to shut down the phosphorylation of AKT
same,"insulin resistance which can lead to diabetes, share of patients",[3],about 30%
